Values joined by “and” are separate entries in the source; they are usually repeats but may differ in a detail not shown here. Equal values may be shown once. Read-outs that look alike come from different tables or passages of the source.
Assays:
[1] = biological target: T1, human dopamine transporter (hDAT) (Homo sapiens, UniProt Q01959); assay: biochemical; type: binding
[2] = biological target: T2, human norepinephrine transporter (hNET) (Homo sapiens, UniProt P23975); assay: cell-based
[3] = biological target: T2, human norepinephrine transporter (hNET); assay: biochemical; type: binding
[4] = biological target: T1, human dopamine transporter (hDAT); assay: cell-based
male Swiss-Webster mice [5] = assay: Cocaine interaction study (locomotor activity); type: in vivo; conditions: planned comparisons on log10 horizontal activity counts, 20 mg/kg cocaine IP
male Swiss-Webster mice [6] = assay: animal or person; type: in vivo
[7] = read-out: [125I]RTI-55 binding Ki, DAT
[8] = read-out: [125I]RTI-55 binding Ki, NET
[9] = read-out: [3H]Dopamine Uptake IC50
[10] = HEK-hNET cells, read-out: [3H]NE Uptake IC50
[11] = HEK-hNET cells, read-out: [125I]RTI-55 binding Ki, NET
[12] = Table 2, read-out: Reuptake [3H]NE (Ki ± SD)

T1 sequence (Q01959 whole entry): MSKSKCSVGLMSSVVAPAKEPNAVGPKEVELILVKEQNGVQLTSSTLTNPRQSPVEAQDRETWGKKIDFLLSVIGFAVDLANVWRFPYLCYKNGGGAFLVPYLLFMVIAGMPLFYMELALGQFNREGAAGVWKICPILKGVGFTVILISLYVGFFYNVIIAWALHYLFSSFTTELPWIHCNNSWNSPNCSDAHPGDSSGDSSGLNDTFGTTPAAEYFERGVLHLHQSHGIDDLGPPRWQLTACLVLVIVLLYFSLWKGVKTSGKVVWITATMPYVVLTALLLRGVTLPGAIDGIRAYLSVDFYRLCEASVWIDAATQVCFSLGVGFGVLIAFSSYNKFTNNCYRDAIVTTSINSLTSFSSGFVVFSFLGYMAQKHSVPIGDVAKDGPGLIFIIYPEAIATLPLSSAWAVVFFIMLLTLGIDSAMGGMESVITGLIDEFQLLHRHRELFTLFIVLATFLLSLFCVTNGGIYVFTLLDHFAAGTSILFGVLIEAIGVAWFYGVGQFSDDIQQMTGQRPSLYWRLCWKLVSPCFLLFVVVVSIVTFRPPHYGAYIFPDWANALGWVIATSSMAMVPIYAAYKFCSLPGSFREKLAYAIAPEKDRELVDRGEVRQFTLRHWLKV
T2 sequence (P23975 whole entry): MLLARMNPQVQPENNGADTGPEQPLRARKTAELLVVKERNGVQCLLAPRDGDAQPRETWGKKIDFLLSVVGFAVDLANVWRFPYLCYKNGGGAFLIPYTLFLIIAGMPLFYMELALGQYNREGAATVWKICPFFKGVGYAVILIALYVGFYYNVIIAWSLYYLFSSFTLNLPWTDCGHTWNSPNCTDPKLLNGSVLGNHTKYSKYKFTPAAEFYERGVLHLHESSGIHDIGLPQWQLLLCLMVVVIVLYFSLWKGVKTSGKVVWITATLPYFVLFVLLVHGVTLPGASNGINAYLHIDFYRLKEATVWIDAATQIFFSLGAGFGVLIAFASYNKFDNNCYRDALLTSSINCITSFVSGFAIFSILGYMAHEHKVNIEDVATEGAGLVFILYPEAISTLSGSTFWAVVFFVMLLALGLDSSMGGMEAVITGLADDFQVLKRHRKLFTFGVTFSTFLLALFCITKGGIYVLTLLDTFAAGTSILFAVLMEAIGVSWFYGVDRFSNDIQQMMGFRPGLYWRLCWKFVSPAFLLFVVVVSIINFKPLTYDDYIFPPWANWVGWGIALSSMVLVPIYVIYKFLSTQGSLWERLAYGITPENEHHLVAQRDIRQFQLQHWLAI

Row | Compound | Binding discrimination ratio NET/DAT [1] | Binding discrimination ratio SERT/DAT [1] | Hill coefficient [1] | Ki [1, 7] [µM] | IC50 ([2]; read-out: [3H]NE Uptake IC50) | Hill coefficient [3] | Ki [3, 8] [µM] | Discrimination Ratio DAT Binding/Reuptake [4] | IC50 [4, 9] [nM] | Ki ([1]; [125I]RTI-55 binding Ki, DAT) [µM] | Discrimination ratio uptake/binding (DA) [4] | other results
1 | OC1CCN(CCCCOC(c2ccc(F)cc2)c2ccc(F)cc2)CC1 [Compound 31648] | 5.4 | 3.7 | −0.69 ± 0.07 | 0.124 ± 0.027 | 143 nM | −0.75 ± 0.06 | 0.61 | 0.9 | 101 |  |  | 
2 | Fc1ccc(C(OCCCCN2CCN(c3cccc(Cl)c3)CC2)c2ccc(F)cc2)cc1 [Compound 31651] | 1.7 | 0.8 |  | 0.175 ± 0.071 | 189 ± 89 nM |  | 0.3 ± 0.07 | 9.5 | 1670 ± 440 |  |  | 
3 | Fc1ccc(C(OCCCCN2CCN(c3ccc(F)cc3)CC2)c2ccc(F)cc2)cc1 [Compound 31527] | 7.8 | 1.3 | −0.84 ± 0.05 |  |  | −0.72 ± 0.05 |  | 23.0 |  | 0.0265 | 23.0 | Ki [2]: 225 ± 28 nM; IC50 ([2]; [3H]NE Uptake IC50): 225 ± 28 nM; Ki ([3]; [125I]RTI-55 binding Ki, NET): 0.207 µM; IC50 [4]: 610 nM; Ki [4]: 610 ± 150 nM
4 | O=c1[nH]c2ccccc2n1C1CCN(CCCCOC(c2ccc(F)cc2)c2ccc(F)cc2)CC1 [Compound 31649] | 16.8 | 2.9 | −0.63 ± 0.23 | 0.00132 | 132 nM | −0.47 ± 0.03 | 0.0222 | 323 | 426 |  |  | 
5 | OC1(c2ccc(Cl)cc2)CCN(CCCCOC(c2ccc(F)cc2)c2ccc(F)cc2)CC1 [Compound 31625] | 51.7 | 2380 | −0.74 ± 0.25 |  |  | −0.99 ± 0.22 |  | 95.2 |  | 0.0042 |  | IC50 [2, 10]: 800 nM; Ki [3, 11]: 0.217 µM; IC50 ([4]; HEK-hDAT cells, text of Examples 20 and 24, read-out: [3H]Dopamine Uptake IC50): 400 nM
6 | CC(=O)C1(c2ccccc2)CCN(CCCCOC(c2ccc(F)cc2)c2ccc(F)cc2)CC1 [Compound 31525] | 5.3 | 5.8 | −0.61 ± 0.01 |  |  | −0.71 ± 0.06 |  |  |  | 0.0217 | 47.5 | IC50 [2, 10]: 2550 nM; Ki [2, 12]: 2550 ± 950 nM; Ki [3, 11]: 0.114 µM; IC50 ([4]; HEK-hDAT cells, read-out: [3H]Dopamine Uptake IC50): 1030 nM; Ki ([4]; Table 2, read-out: Reuptake [3H]DA (Ki ± SD)): 1030 ± 330 nM
7 | O=C1CN(CCCCOC(c2ccc(F)cc2)c2ccc(F)cc2)CCN1 [Compound 31524] | >2.4 | 0.4 | −064 ± 0.03 | 4.1 |  |  | > 10 |  | 2290 |  | 0.6 | Ki ([2]; read-out: Reuptake [3H]NE (Ki ± SD)): > 10000 nM; Ki ([4]; read-out: Reuptake [3H]DA (Ki ± SD)): 2290 ± 200 nM
8 | Fc1ccc(C(OCCCCN2CCN(c3ccc(Cl)cc3)CC2)c2ccc(F)cc2)cc1 [Compound 31652] | 7.6 | 0.7 | −1.08 ± 0.18 |  | 390 nM | −0.80 ± 0.08 |  | 23.4 |  | 0.05 |  | IC50 ([2]; [3H]NE Uptake IC50): 390 nM; Ki ([3]; [125I]RTI-55 binding Ki, NET): 0.38 µM and 3.8 µM; IC50 [4]: 1170 nM
9 | O=C1c2ccccc2C(=O)N1CCCCN1CCC(O)(c2ccc(Br)cc2)CC1 [Compound 31627] | 1 | >0.2 |  |  | >10000 nM |  |  |  | >10000 |  |  | Ki ([1]; HEK-hDAT cells, bound given in μM, read-out: [125I]RTI-55 binding Ki, DAT): > 10 µM; Ki ([3]; HEK-hNET cells, bound given in μM, read-out: [125I]RTI-55 binding Ki, NET): > 10 µM
10 | Fc1ccc(C(OCCCCN2CCN(c3ccccc3)CC2)c2ccc(F)cc2)cc1 [Compound 31653] | 3.3 | 0.8 | −1.14 ± 0.10 |  |  | −0.93 ± 0.17 |  | 23.2 |  | 0.0609 |  | IC50 ([2]; [3H]NE Uptake IC50): 56.3 nM; Ki ([3]; [125I]RTI-55 binding Ki, NET): 0.203 µM; IC50 [4]: 1410 nM
11 | NC(=O)C1CCCN(CCCCOC(c2ccc(F)cc2)c2ccc(F)cc2)C1 (stereo not shown) [Compound 31628] | 6.1 | 1.4 | −1.02 ± 0.16 | 0.094 | 158 nM | −1.48 ± 0.70 | 0.578 | 0.6 | 56 |  |  | 
12 | Fc1ccc(C(OCCCCN2CCNC(c3ccccc3)C2)c2ccc(F)cc2)cc1 (stereo not shown) [Compound 31533] | 49.9 | 19.6 |  |  |  |  |  |  |  |  | 144.4 | Doses with significant differences against the cocaine group (p<0.05) (male Swiss-Webster mice [5]): 30 mg/kg; Ki [2]: 290 ± 130 nM; ED50 (male Swiss-Webster mice [6]; Mus musculus, ip, read-out: ED50 (dose producing ½ maximal stimulant activity)): 1.52 mg/kg; Maximal effect/cocaine maximal effect ratio (ME/CME) (male Swiss-Webster mice [6]; mouse, in vivo): 0.30; Maximum effect, horizontal activity (male Swiss-Webster mice [6]; mouse, in vivo): 1648.6 counts/10 min; Dose at estimated maximum effect (male Swiss-Webster mice [6]; mouse, in vivo, ip): 10.26 mg/kg; Ki [4]: 550 ± 140 nM
13 | Fc1ccc(C(OCCCCN2CCN(c3ccccc3Cl)CC2)c2ccc(F)cc2)cc1 [Compound 31626] | 8.1 | 1.3 | −1.11 ± 0.08 | 0.067 | 290 nM and 299 nM | −1.39 ± 0.23 | 0.54 | 4.9 | 328 |  |  | 
14 | COc1ccccc1N1CCN(CCCCOC(c2ccc(F)cc2)c2ccc(F)cc2)CC1 [Compound 31654] | 3.5 | 9.7 | −0.88 ± 0.09 | 0.0262 | 176 nM | −0.59 ± 0.02 | 0.092 | 11.5 | 301 |  |  | 
15 | OC1CCCN(CCCCOC(c2ccc(F)cc2)c2ccc(F)cc2)C1 (stereo not shown) [Compound 31650] | 6.7 | 4.8 | −0.82 ± 0.15 | 0.091 | 310 nM | −0.66 ± 0.05 | 0.611 | 1.3 | 114 |  |  | 
16 | OC1(c2ccccc2)CCN(CCCCOC(c2ccc(F)cc2)c2ccc(F)cc2)CC1 [Compound 31531] | 8.4 | 2.8 | −0.63 ± 0.06 |  |  | −0.73 ± 0.03 |  |  |  | 0.0064 | 15.0 | IC50 [2, 10]: 179 nM; Ki [2, 12]: 179 ± 47 nM; Ki ([3]; [125I]RTI-55 binding Ki, NET): 0.054 µM; IC50 [4]: 96 nM; Ki [4]: 96 ± 11 nM

From patent US6835371B1 (priority 1997, dated 2004)
